In patent US20070191267A1, “Use of tyrosine kinase inhibitors for treating cerebral ischemia” (AB SCIENCE, priority 2003, published 2007):

How the values were obtained:
c-kit = biological target: T1, c-kit (Homo sapiens, UniProt P10721); test: In vitro TK inhibition assay (ELISA, phosphorylation of tyrosine containing target peptide); assay type: biochemical; conditions: purified intracellular domain of c-kit expressed in baculovirus
T1 construct: purified intracellular domain of c-kit expressed in baculovirus; made in house
T1 sequence (P10721 546-976 limits assumed): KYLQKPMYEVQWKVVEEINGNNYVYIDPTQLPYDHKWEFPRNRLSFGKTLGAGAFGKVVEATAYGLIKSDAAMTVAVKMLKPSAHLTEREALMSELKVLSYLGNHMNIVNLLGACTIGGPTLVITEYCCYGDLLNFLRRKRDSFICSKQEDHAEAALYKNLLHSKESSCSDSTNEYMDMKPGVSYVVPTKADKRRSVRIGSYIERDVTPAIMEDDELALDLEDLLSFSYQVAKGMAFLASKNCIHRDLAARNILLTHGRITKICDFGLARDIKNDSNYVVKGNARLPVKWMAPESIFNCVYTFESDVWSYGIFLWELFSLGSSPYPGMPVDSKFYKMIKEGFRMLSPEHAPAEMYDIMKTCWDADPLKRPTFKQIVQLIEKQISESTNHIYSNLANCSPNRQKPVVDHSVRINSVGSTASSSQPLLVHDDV
Method: in Vitro TK Inhibition Assays
Experiments were performed using purified intracellular domain of c-kit expressed in baculovirus. Estimation of the kinase activity was assessed by the phosphorylation of tyrosine containing target peptide estimated by established ELISA assay.

Row | SMILES | melting point | IC50 (c-kit)
1 | Cc1ccc(NC(=O)c2ccc(N(C)C)cc2)cc1Nc1nc(-c2cccnc2)cs1 [Compound 047, 4-Dimethylamino-N-[4-methyl-3-(4-pyridin-3-yl-thiazol-2-ylamino)-phenyl]-benzamide] | 147 to 150 °C | 
2 | Cc1ccc(NC(=O)Nc2cccc(F)c2)cc1Nc1nc(-c2cccnc2)cs1 [Compound 025, 1-(3-Fluoro-phenyl)-3-[4-methyl-3-(4-pyridin-3-yl-thiazol-2-ylamino)-phenyl]-urea] | 210 to 215 °C | 
3 | Cc1ccc(NC(=O)c2ccc(-c3ccncc3)cc2)cc1Nc1nc(-c2cccnc2)cs1 [Compound 046, N-[4-Methyl-3-(4-pyridin-3-yl-thiazol-2-ylamino)-phenyl]-4-pyridin-4-yl-benzamide] | 254 to 256 °C | 
4 | Cc1ccc(NC(=O)Nc2ccccc2F)cc1Nc1nc(-c2cccnc2)cs1 [Compound 023, 1-(2-Fluoro-phenyl)-3-[4-methyl-3-(4-pyridin-3-yl-thiazol-2-ylamino)-phenyl]-urea] | 203 to 206 °C | < 10 µM
5 | Cc1ccc(NC(=O)c2ccc(NS(=O)(=O)c3cccs3)cc2)cc1Nc1nc(-c2cccnc2)cs1 [Compound 044, N-[4-Methyl-3-(4-pyridin-3-yl-thiazol-2-ylamino)-phenyl]-4-(thiophene-2-sulfonylamino)-benzamide] | 230 to 233 °C | 
6 | Cc1ccc(F)c(C(=O)Nc2ccc(C)c(Nc3nc(-c4cccnc4)cs3)c2)c1 [Compound 048, 2-Fluoro-5-methyl-N-[4-methyl-3-(4-pyridin-3-yl-thiazol-2-ylamino)-phenyl]-benzamide] | 103 to 106 °C | 
7 | Cc1ccc(NC(=O)Nc2ccc(C)c(Nc3nc(-c4cccnc4)cs3)c2)cc1 [Compound 026, 3-[4-Methyl-3-(4-pyridin-3-yl-thiazol-2-ylamino)-phenyl]-3-p-tolyl-urea] | 238 to 240 °C | 
8 | Cc1ccc(NC(=O)c2cccc(F)c2)cc1Nc1nc(-c2cccnc2)cs1 [Compound 045, 3-Fluoro-N-[4-methyl-3-(4-pyridin-3-yl-thiazol-2-ylamino)-phenyl]-benzamide] | 184 to 186 °C | 

More lines, now with the values ahead:

Row | melting point | IC50 (c-kit) | SMILES
9 | 247 to 248 °C |  | Cc1ccc(NC(=O)c2cccc(N3CCOCC3)c2)cc1Nc1nc(-c2cccnc2)cs1 [Compound 090, N-[4-Methyl-3-(4-pyridin-3-yl-thiazol-2-ylamino)-phenyl]-3-morpholin-4-yl-benzamid]
10 |  | < 10 µM | Cc1ccc(NC(=O)c2ccc(-c3ccncc3)cc2)cc1Nc1nc(-c2cccnc2)cs1 [Compound 053]
11 |  | < 10 µM | Cc1ccc(NC(=O)c2ccc(CN3CCN(C)CC3)c(F)c2)cc1Nc1nc(-c2cccnc2)cs1 [Compound 074, 3-Fluoro-4-(4-methyl-piperazin-1-ylmethyl)-N-[4-methyl-3-(4-pyridin-3-yl-thiazol-2-ylarnino)-phenyl]-benzamide]
12 | 116 to 120 °C |  | Cc1ccc(NC(=O)CCCN2CCOCC2)cc1Nc1nc(-c2cccnc2)cs1 [Compound 096, N-[4-Methyl-3-(4-pyridin-3-yl-thiazol-2-ylamtino)-phenyl]-4-morpholin-4-yl-butyramide]
13 | 197 to 198 °C |  | Cc1ccc(NC(=O)c2cccc(N(C)C)c2)cc1Nc1nc(-c2cccnc2)cs1 [Compound 088, 3-Dimethylamino-N-[4-methyl-3-(4-pyridin-3-yl-thiazol-2-ylamino)-phenyl]-benzamide]
14 | 145 to 150 °C |  | Cc1ccc(NC(=O)c2ccc(C(C)(C)C)cc2)cc1Nc1nc(-c2cccnc2)cs1 [Compound 049, 4-tert-Butyl-N-[4-methyl-3-(4-pyridin-3-yl-thiazol-2-ylamino)-phenyl]-benzamide]
15 |  | < 10 µM | Cc1ccc(NC(=O)c2cccc(C(F)(F)F)c2F)cc1Nc1nc(-c2cccnc2)cs1 [Compound 055, 2-Fluoro-N-[4-methyl-3-(4-pyridin-3-yl-thiazol-2-ylamino)-phenyl]-3-trifluoromethyl-benzamide]
16 | 75 to 80 °C |  | Cc1ccc(NC(=O)c2cccc(OCCN3CCOCC3)c2)cc1Nc1nc(-c2cccnc2)cs1 [Compound 052, N-[4-Methyl-3-(4-pyridin-3-yl-thiazol-2-ylamino)-phenyl]-3-(2-morpholin-4-yl-ethoxy)-benzamide]
